From patent US10662210B2, “Compositions and methods comprising osmium for the treatment of cancers” (Massachusetts Institute of Technology, priority 2014, dated 2020)

What was measured:
Format in all cases: cell-based, human
[1] = test system: phosphorylated H2AX (γH2AX), CHK2, CHK1, p53 (Ser15) in A2780 cells; test: Immunoblotting analysis, DNA damage pathway; conditions: 72 hours
Description: (§1) To gain further insight into the modes of action of 2 and 4, immunoblotting analyses were conducted to monitor changes in expression of biomarkers related to the DNA damage pathway (FIG. 8). […] This difference could be related to steric effects imposed by the phenyl groups in 4.
A2780 cells (5×10^5 cells) were incubated with the osmium complexes (concentrations, μM) for 72 h at 37° C. Cells were washed with PBS, scraped into SDS-PAGE loading buffer (64 mM Tris-HCl (pH6.8)/9.6% glycerol/2% SDS/5% β-mercaptoethanol/0.01% Bromophenol Blue), and incubated at 95° C. for 10 min. Whole cell lysates were resolved by 4-20% sodium dodecylsulphate polyacylamide gel electrophoresis (SDS-PAGE; 200 V for 25 min) followed by electro transfer to polyvinylidene difluoride membrane, PVDF (350 mA for 1 h). Membranes were blocked in 5% (w/v) non-fat milk in PBST (PBS/0.1% Tween 20) and incubated with the appropriate primary antibodies (Cell Signalling Technology and Santa Cruz). After incubation with horseradish peroxidase-conjugated secondary antibodies (Cell Signalling Technology), immune complexes were detected with the ECL detection reagent (BioRad) and analyzed using an Alpha Innotech ChemiImager™ 5500 fitted with a chemiluminescence filter.

[2] = test system: genomic DNA from A2780 cells; test: Intracellular DNA osmium content; conditions: 10 μM, 12 h
Description: as §1
To measure the amount osmium on genomic DNA, ca. 1 million A2780 cells were treated with 10 μM of the complexes at 37° C. for 12 h. Then the media were removed, the cells were washed with PBS solution (1 mL×3), harvested, and centrifuged. The cellular pellet was suspended in DNAzol (1 mL, genomic DNA isolation reagent, MRC). The DNA was precipitated with ethanol (0.5 mL), washed with 75% ethanol (0.75 mL×3), and re-dissolved in 200 μL of 8 mM NaOH. The DNA concentration was determined by UV-visible spectroscopy, and osmium was quantified by GFAAS. The reported values are the average of at least three independent experiments with the error reported as the standard deviation.

A2780 cells [3] = test: DNA flow cytometric cell cycle analysis
Description: After 24 hours untreated A2780 cells had the following distribution: G1: 73.4%, S: 21.7%, and G2/M: 5.0%. After 48 hours untreated A2780 cells had the following distribution: G1: 75.1%, S: 19.6%, and G2/M: 5.2%. After 72 hours untreated had the following distribution: G1: 73.6%, S: 21.0%, and G2/M: 5.4%. After 24 hours A2780 cells treated with 2 had the following distribution: G1: 61.0%, S: 27.9%, and G2/M: 11.1%. After 48 hours A2780 cells treated with 2: G1: 61.8%, S: 19.0%, and G2/M: 19.1%. After 72 hours A2780 cells treated with 2 had the following distribution: G1: 57.3%, S: 23.3%, and G2/M: 19.4%. This property may be related to upregulation of p53 and phosphorylation of CHK1. Complex 4 induced relatively small perturbations to the cell cycle; changes in phase populations remained <5% even after a 72-hours incubation. After 24 hours untreated A2780 cells had the following distribution: G1: 73.7%, S: 23.1%, and G2/M: 3.3%. After 48 hours untreated A2780 cells had the following distribution: G1: 73.4%, S: 21.7%, and G2/M: 4.9%. After 72 hours untreated A2780 cells had the following distribution: G1: 79.7%, S: 19.4%, and G2/M: 0.9%. After 24 hours A2780 cells treated with 4 had the following distribution: G1: 70.9%, S: 24.8%, and G2/M: 4.6%. After 48 hours A2780 cells treated with 4 had the following distribution: G1: 71.9%, S: 18.3%, and G2/M: 9.8%. After 72 hours A2780 cells treated with 4 had the following distribution: G1: 70.3%, S: 24.4%, and G2/M: 5.3%.
In order to monitor the cell cycle, flow cytometry studies were carried out. A2780 cells were incubated with and without the test compounds for 24-72 h at 37° C. Studies on A549 cells under normal and starved (proliferating and non-proliferating) conditions were also carried out. Cells were harvested from adherent cultures by trypsinization. Following centrifugation at 1000 rpm for 5 min, cells were washed with PBS and then fixed with 70% ethanol in PBS. Fixed cells were collected by centrifugation at 2500 rpm for 3 min, washed with PBS and centrifuged as before. Cellular pellets were re-suspended in 50 μg/ml propidium iodide (Sigma) in PBS for nucleic acids staining and treated with 100 μg/ml RNaseA (Sigma). DNA content was measured on a FACSCalibur-HTS flow cytometer (BD Biosciences) using laser excitation at 488 nm and 20,000 events per sample were acquired. Cell cycle profiles were analysed using the ModFit software. For the apoptosis experiments, the Annexin V-FITC Early Apoptosis Detection Kit was used. The manufacture's protocol was followed to carry out this experiment. Briefly, untreated and treated cells (1×10^5) were suspended in 1× annexin binding buffer (96 μL) (10 mM HEPES, 140 mM NaCl, 2.5 mM CaCl2), pH 7.4), then 1 μL FITC annexin V and 12.5 μL PI (10 μg/mL) were added to each sample and incubated on ice for 15 min. After which more binding buffer (150 μL) was added while gently mixing. The samples were kept on ice prior to being read on the FACSCalibur-HTS flow cytometer (BD Biosciences) and 20,000 events per sample were acquired. Cell populations were analysed using the FlowJo software (Tree Star).

A2780 cells [4] = test: Dual Annexin V staining/PI flow cytometry assay; conditions: 72 hours
Description: (§2) To have a more complete understanding of the cellular response induced by 2 or 4, their mode of cell killing was evaluated. Many clinically approved cancer drugs exert their cytotoxic effects through apoptosis, and so the features related to this pathway were monitored. Apoptotic cells underwent morphological changes that lead to cell membrane disorientation. […] Cells can undergo other forms of cell death such as necrosis and autophagy. To probe these pathways, cytotoxicity assays were carried out in the presence of […], chloroquine, and IM-54, respectively. Because both chloroquine and IM-54 had little effect on the potency of either of the osmium complexes, necrosis and autophagy were ruled out as possible death pathways. […] On the other hand, 4 initiated ER stress, culminating in p53 independent, caspase directed apoptosis (FIG. 4).
In order to monitor the cell cycle, flow cytometry studies were carried out. […] DNA content was measured on a FACSCalibur-HTS flow cytometer (BD Biosciences) using laser excitation at 488 nm and 20,000 events per sample were acquired. Cell cycle profiles were analysed using the ModFit software. […] The samples were kept on ice prior to being read on the FACSCalibur-HTS flow cytometer (BD Biosciences) and 20,000 events per sample were acquired. Cell populations were analysed using the FlowJo software (Tree Star).

[5] = test system: cleaved caspase 3, 7, 9 and PARP in A2780 cells; test: Immunoblotting analysis, apoptosis pathway; conditions: 72 h
Description: as §2
A2780 cells (5×10^5 cells) were incubated with the osmium complexes (concentrations, μM) for 72 h at 37° C. […] After incubation with horseradish peroxidase-conjugated secondary antibodies (Cell Signalling Technology), immune complexes were detected with the ECL detection reagent (BioRad) and analyzed using an Alpha Innotech ChemiImager™ 5500 fitted with a chemiluminescence filter.

| SMILES | expression of DNA damage pathway biomarkers [1] | Os/DNA ratio on genomic DNA [2] | cell cycle distribution G1 (A2780 cells [3]; 24 hours) [%] | cell cycle distribution G2/M (A2780 cells [3]; 24 hours) [%] | cell cycle distribution S (A2780 cells [3]; 24 hours) [%] | cell cycle distribution G1 (A2780 cells [3]; 48 hours) [%] | cell cycle distribution G2/M (A2780 cells [3]; 48 hours) [%] | cell cycle distribution S (A2780 cells [3]; 48 hours) [%] | increase in G2/M population (A2780 cells [3]; 72 h incubation) [fold] | cell cycle distribution G1 (A2780 cells [3]; 72 hours) [%] | cell cycle distribution G2/M (A2780 cells [3]; 72 hours) [%] | cell cycle distribution S (A2780 cells [3]; 72 hours) [%] | occurrence of apoptosis (Annexin V/PI) (A2780 cells [4]) | expression of apoptosis positive proteins [5] | changes in phase populations (A2780 cells [3]; up to 72-hours incubation) [%] |
| --- | --- | --- | --- | --- | --- | --- | --- | --- | --- | --- | --- | --- | --- | --- | --- |
| [N]#[Os]1([Cl])([Cl])([Cl])[N]2C=CC=c3ccc4c(c32)[N]1C=CC=4 [Complex 2, OsN(1,10-phenanthroline)Cl3] | marked increase in expression of the phosphorylated forms of H2AX (γH2AX), CHK2, CHK1, and p53 (Ser15) | about 21 pmol/μg | 61.0 | 11.1 | 27.9 | 61.8 | 19.1 | 19.0 | ~3 | 57.3 | 19.4 | 23.3 | induced large populations of cells to undergo early and late stage apoptosis | expressed apoptosis positive proteins, cleaved caspase 3, 7, 9, and poly ADP ribose polymerase (PARP) | – |
| [N]#[Os]1([Cl])([Cl])([Cl])[N]2C=CC(c3ccccc3)=c3ccc4c(c32)[N]1C=CC=4c1ccccc1 [Complex 4, OsN(4,7-diphenyl-1,10-phenanthroline)Cl3] | little signs of DNA damage | about 14 pmol/μg | 70.9 | 4.6 | 24.8 | 71.9 | 9.8 | 18.3 | – | 70.3 | 5.3 | 24.4 | induced large populations of cells to undergo early and late stage apoptosis | expressed apoptosis positive proteins, cleaved caspase 3, 7, 9, and poly ADP ribose polymerase (PARP) | < 5 |
